Assay results taken from patent US20180296630A1, “METHODS AND COMPOSITIONS FOR PREVENTING OR TREATING OPHTHALMIC CONDITIONS” (Stealth BioTherapeutics Corp, priority 2012, published 2018).

Assays:
[1] = Ocular pharmacokinetics and disposition of total radioactivity after topical instillation or subcutaneous dosing; type: in vivo, New Zealand White rabbits; conditions: for AUC0-24 h / AUCinf / T1/2 / Tmax: topical instillation 1% solution, 40 μL/eye, total radioactivity; for time post-dosing at which equivalent drug concentration reached a maximum / equivalent drug content at peak concentration, of the total dose administered to the eye: topical instillation
Description: Sixteen New Zealand White rabbits were dosed with a formulation consisting of 10 mg/mL of ^14C-labeled D-Arg-2′,6′-Dmt-Lys-Phe-NH2. Animals were at least twelve weeks old and weighed 2.30-3.43 kg at the time of dosing. Animals were randomized to treatment groups according to Table 7.
Dosing solutions were prepared by combining 14.70 mg (correction factor of 0.782) of non-radiolabeled D-Arg-2′,6′-Dmt-Lys-Phe-NH2, and 17.49 mg (correction factor of 0.770) of ^14C-labeled D-Arg-2′,6′-Dmt-Lys-Phe-NH2, and dissolving in 2.5 mL of 0.01M PBS, pH 7.4 to achieve a concentration of 9.97 mg/mL (1%, free peptide) and a radiolabeled concentration of […]. Three aliquots (100 μL) of dosing solution were brought to a volume of 25 mL with saline. Duplicate 100 μL aliquots of the diluted solutions were quantified for radioactivity by liquid scintillation counting (LSC). […] The dosing solutions were stored at 2-8° C. for up to 24 hours prior to use, or at −70° C. for future use.
On Day 1, 40 μL of the 1% (10 mg/mL) D-Arg-2′,6′-Dmt-Lys-Phe-NH2 dosing solution was topically instilled into both eyes of each animal in Groups A-G. Each animal in Groups H-I received a single subcutaneous dose of 0.1 mL/kg (1 mg/kg) of the dosing solution into the dorsal scapular region. At the designated time, each animal was anesthetized and blood was collected via cardiac puncture. Animals were euthanized following cardiac puncture. Approximately 3±0.5 mL of whole blood was collected in a K2EDTA tube. Four aliquots (100 μL) were directly transformed to combustion cones. Blood aliquots were stored at ≤−20° C. until analyzed.
For Groups A-G, the right globe and one left globe from each group (N=3 globes) were collected and necropsied. The remaining left eye (except for Group G) was collected for possible 3D-QWBA (Quantitative whole body autoradiography) analysis and the conjunctiva remained intact to the eyes. For Groups H-I, both globes were collected from each animal and necropsied. All eyes designated for necropsy were rinsed with normal saline and aqueous humor samples were collected. The globes were enucleated and frozen in liquid nitrogen and stored at ≤−80° C. prior to dissection. The vitreous humor, cornea, conjunctiva, iris/ciliary body, lens, retina, choroid, and sclera were collected from the appropriate eye, weighed, and stored at ≤−20° C. prior to analysis. Aqueous humor samples were also stored at ≤−20° C. until analyzed.
All radioactivity measurements were performed using a Beckman Liquid Scintillation Spectrometer. Two blood aliquots were combusted and two aliquots were reserved for combustion if needed. From each eye, the cornea, conjunctiva, iris/ciliary body, lens, retina, choroid, and sclera from each eye were weighed into combustion cones and combusted. Duplicate aliquots of each aqueous humor sample and each vitreous humor sample were transferred to scintillation vials using Insta-Gel as the scintillation fluid, and the amount of radioactivity was determined.

[2] = system: human retinal epithelial cells (HREC); experiment: Intracellular ROS in HRECs exposed to 30 mM glucose (dihydroethidium); type: cell-based; conditions: 100 nM, 24 h and 48 h
Description: FIGS. 2A-2F is a series of micrographs showing co-treatment with D-Arg-2′,6′-Dmt-Lys-Phe-NH2 (SS-31) reduced intracellular reactive oxygen species (ROS) in HRECs exposed to 30 mM glucose for 24 h and 48 h. Intracellular ROS was measured using dihydroethidium. 2A, 2D normal culture media; 2B, 2E 30 mM glucose; and 2C, 2F 30 mM glucose+D-Arg-2′,6′-Dmt-Lys-Phe-NH2 (SS-31) (100 nM) at 24 and 48 h, respectively.
The survival of HRECs in high glucose co-treated with D-Arg-2′,6′-Dmt-Lys-Phe-NH2 was tested at 24 h and 48 h.

GTM cells = experiment: Intracellular ROS production, acute H2O2 injury, FACS, GTM cells; type: cell-based, human; conditions: n=3
Source text: The percentage of intracellular ROS production compared to GTM control in GTM H2O2, D-Arg-2′,6′-Dmt-Lys-Phe-NH2 10^−6M, D-Arg-2′,6′-Dmt-Lys-Phe-NH2 10^−7M, D-Arg-2′,6′-Dmt-Lys-Phe-NH2 10^−8M groups were 146.0±2.27%, 84.5±8.75%, 102.0±5.69%, 133.0±5.17% respectively (n=3); the HTM groups were 153.0±3.46%, 79±2.39%, 91.8±3.49%, 129.0±8.24% respectively (n=4). P<0.001 GTM and HTM H2O2 Group compared to control; *** means P<0.001 compared to GTM H2O2 group; ▴ ▴ ▴ Means P<0.001 compared to HTM H2O2 group; ▴ ▴ means P<0.01 compared to HTM H2O2 group.

## D-Arg-2′,6′-Dmt-Lys-Phe-NH2
[1]; aqueous humor
  AUC0-24 h: 2600 hr*ng-equi/g
  AUCinf: 2680 hr*ng-equi/g
  T1/2: 4.60 h
  Tmax: 4.0 h
[1]; blood, 1 hour after subcutaneous dosing (1 mg/kg)
  radioactivity concentration: 356 ng-equi/g
[1]; blood, 2 hours after subcutaneous dosing (1 mg/kg)
  radioactivity concentration: 87.9 ng-equi/g
[1]; blood
  AUC0-24 h: 1210 hr*ng-equi/g
  AUCinf: 1250 hr*ng-equi/g
  T1/2: 4.36 h
  Tmax: 2.0 h
[1]; choroid, lens and retina
  time post-dosing at which equivalent drug concentration reached a maximum: 4 h
[1]; choroid, 1 hour after subcutaneous dosing (1 mg/kg)
  equivalent drug concentration: 558±251 ng-equi/g
[1]; choroid
  AUC0-24 h: 1900 hr*ng-equi/g
  AUCinf: 2190 hr*ng-equi/g
  T1/2: 8.21 h
  Tmax: 4.0 h
[1]; conjunctiva, cornea and sclera
  time post-dosing at which equivalent drug concentration reached a maximum: 0.5 h
[1]; conjunctiva, 1 hour after subcutaneous dosing (1 mg/kg)
  equivalent drug concentration: 650±12 ng-equi/g
[1]; conjunctiva
  equivalent drug content at peak concentration, of the total dose administered to the eye: 0.293±0.198%
  AUC0-24 h: 41,400 hr*ng-equi/g
  AUCinf: 56,000 hr*ng-equi/g
  T1/2: 13.6 h
  Tmax: 0.5 h
[1]; cornea, 1 hour after subcutaneous dosing (1 mg/kg)
  equivalent drug concentration: 209 ng-equi/g
[1]; cornea
  equivalent drug content at peak concentration, of the total dose administered to the eye: 0.028±0.005%
  AUC0-24 h: 14,000 hr*ng-equi/g
  Tmax: 0.5 h
[1]; iris/ciliary body, 1 hour after subcutaneous dosing (1 mg/kg)
  equivalent drug concentration: 513±2 ng-equi/g
[1]; iris/ciliary body
  AUC0-24 h: 2750 hr*ng-equi/g
  AUCinf: 3279 hr*ng-equi/g
  T1/2: 8.81 h
  Tmax: 4.0 h
[1]; lens
  AUC0-24 h: 2720 hr*ng-equi/g
  Tmax: 4.0 h
[1]; retina, 1 hour after subcutaneous dosing (1 mg/kg)
  equivalent drug concentration: 336±3 ng-equi/g
[1]; retina
  AUC0-24 h: 1030 hr*ng-equi/g
  AUCinf: 1160 hr*ng-equi/g
  T1/2: 7.01 h
  Tmax: 4.0 h
[1]; sclera, 1 hour after subcutaneous dosing (1 mg/kg)
  equivalent drug concentration: 530±47 ng-equi/g
[1]; sclera
  equivalent drug content at peak concentration, of the total dose administered to the eye: 0.051±0.035%
  AUC0-24 h: 5780 hr*ng-equi/g
  AUCinf: 8910 hr*ng-equi/g
  T1/2: 18.3 h
  Tmax: 0.5 h
[1]; vitreous humor
  AUC0-24 h: 221 hr*ng-equi/g
  AUCinf: 253 hr*ng-equi/g
  T1/2: 7.50 h
  Tmax: 4.0 h
[2]
  production of ROS: reduced
GTM cells; 10^−6M
  percentage of intracellular ROS production compared to GTM control: 84.5±8.75%
GTM cells; 10^−7M
  percentage of intracellular ROS production compared to GTM control: 102.0±5.69%
GTM cells; 10^−8M
  percentage of intracellular ROS production compared to GTM control: 133.0±5.17%
